{"source": "patent US9290541B2", "about": "“TCL1 peptides for immunotherapy” (Board of Regents, The University of Texas System, priority 2011, dated 2016)", "key": {"[1]": {"test_system": "autologous FL tumor cells", "test": "Mechanism of cytotoxicity of TCL1-specific CTLs against autologous follicular lymphoma cells", "type": "cell-based, human", "conditions": "effector:target 20:1; 4 hour chromium-51 release; antibodies 10 μg/ml", "protocol": "FIG. 10: Mechanism of cytotoxicity of TCL1-specific CTLs against autologous follicular lymphoma cells. TCL1-specific T cells were generated from PBMC obtained from a FL patient and cultured with autologous FL tumor cells preincubated with or without 10 μg/ml of MHC class I, class II, and isotype control antibodies at a ratio of 20:1 (Effector:Target). A standard 4 hour chromium-51 release assay was performed. MHC class I but not MHC class II or isotype control antibodies inhibited the cytolysis autologous lymphoma cells."}, "[2]": {"test_system": "TCL165-79 peptide-specific T cells", "test": "IFN-γ ELISA of peptide-specific T cells with peptide-pulsed T2 cells or B lymphoblastoid cell lines", "type": "cell-based, human", "conditions": "normal donor-derived T cells; 18 hours", "protocol": "FIGS. 3A-E: TCL1-specific cytotoxic T cells can be generated from normal donors. (FIG. 3A) PBMCs from HLA-A2^+ normal donors were stimulated with overlapping 15-mer peptides spanning the entire length of the TCL1 protein (see Table 2). T cells from each condition were washed and incubated with autologous CD3-depleted PBMC as antigen-presenting cells (APC) in the presence or absence of the corresponding peptide. After 18 hours, the production of IFN-γ was determined in the supernatants by ELISA. Asterisk indicates significant IFN-γ production compared with control (P<0.05). Representative data from one of three normal donors tested is shown. (FIG. 3B) T cell lines generated from HLA-A2^+ normal donors using TCL165-79 peptide were incubated with APC in the presence or absence of the TCL165-79 peptide or control HIV Gag77-85 peptide, and intracellular cytokine assay was performed. The percentage of CD4^+ and CD8^+ T cells producing IFN-γ are shown. (FIG. 3C) TCL165-79 peptide-specific T cells were incubated with T2 cells or EBV-transformed B lymphoblastoid cell lines (IHW1003, IHW1019, IHW1089, and IHW1135) mismatched at their MHC class I locus in the presence of the TCL165-79 peptide or control HIV Gag77-85 peptide. IFN-γ production was determined as in (FIG. 3A). The HLA-A alleles for each of the cell lines are shown. (FIG. 3D, FIG. 3E) A 4-hour ^51Cr-release cytotoxicity assay was performed. TCL165-79 peptide-specific T cells were incubated with T2 cells alone or T2 cells pulsed with TCL165-79 peptide or control HIV Gag77-85 peptide, at various effector:target ratios. For MHC blocking assay, an effector:target ratio of 20:1 was used in the presence or absence of isotype control antibody or blocking antibodies against MHC class I, MHC class II, HLA-A2, or HLA-B and C. […]\nFIGS. 4A-D: TCL171-78 is the minimal HLA-A*0201-binding peptide. […] After 18 hours, the production of IFN-γ was determined in the supernatants by ELISA. (FIG. 4B) T2 cells were incubated with TCL165-79-derived truncated peptides (SEQ ID NOS:1-2; SEQ ID NOS:12-17; SEQ ID NOS:3-11; and SEQ ID NO:18), and the HLA-A2 binding affinity of each peptide was determined by flow cytometry. The T2 binding index was calculated as described in Materials and Methods. […] (FIG. 4D) TCL165-79 peptide-specific CD8^+ T cells or irrelevant T-cell line were stained with TCL171-78 or HIV Gag77-85 tetramers and analyzed by flow cytometry. […]\n(§1) FIGS. 6A-E: TCL171-78 peptide-specific T cells can be generated from lymphoma patients. (FIG. 6A) PBMC and tumor-infiltrating lymphocytes (TILs) derived from HLA-A2^+ patients with chronic lymphocytic leukemia (CLL) or follicular lymphoma (FL) were stimulated in vitro with TCL165-79 After five stimulations, IFN-γ production in response to TCL165-79 peptide was determined as in FIG. 3A. […]"}, "[3]": {"molecular_target": "T1, HLA-A2 (Homo sapiens, UniProt P04439, D140Y/D185E/D98H/E176V/E277Q/G131W/G231S/I119V/I121R/I166T/I218V/L300P/L318F/N151K/N90K/P208A/P217A/Q86G/Q94H/R138H/R169H/T345S)", "T1 construct": "endogenous in cells; host or cells: T2 hybridoma cells (TAP-deficient, HLA-A2+)", "test": "HLA-A2-binding assay (T2 binding index)", "conditions": "T2 cells, 20 μg/ml peptide, 24 hours", "protocol": "(§2) FIGS. 4A-D: TCL171-78 is the minimal HLA-A*0201-binding peptide. (FIG. 4A) TCL165-79 peptide-specific T cells derived from HLA-A2^+ normal donors were incubated in the presence or absence of T2 cells and TCL165-79 derived truncated peptides (SEQ ID NOS:1-2; SEQ ID NOS:12-17; SEQ ID NOS:3-11; and SEQ ID NO:18) Flu matrix peptide (FMP58-66) and Gag77-85 peptide were used as controls. After 18 hours, the production of IFN-γ was determined in the supernatants by ELISA. (FIG. 4B) T2 cells were incubated with TCL165-79-derived truncated peptides (SEQ ID NOS:1-2; SEQ ID NOS:12-17; SEQ ID NOS:3-11; and SEQ ID NO:18), and the HLA-A2 binding affinity of each peptide was determined by flow cytometry. The T2 binding index was calculated as described in Materials and Methods. […] (FIG. 4D) TCL165-79 peptide-specific CD8^+ T cells or irrelevant T-cell line were stained with TCL171-78 or HIV Gag77-85 tetramers and analyzed by flow cytometry. […]\nTAP-deficient T2 cells were incubated with 20 μg/ml of peptides and 3 μg/ml of β2-microglobulin (Sigma-Aldrich, Cat # M4890) for 24 hours at 37° C. and 5% CO2 in air. The cells were then stained with anti-HLA-A2 PE antibody (BD Biosciences, Cat #560168), and the level of HLA-A2 expression was determined by flow cytometry. […]"}, "[4]": {"test_system": "T2 cells", "test": "4-hour 51Cr-release cytotoxicity assay with peptide-pulsed T2 cells", "type": "cell-based, human", "conditions": "4-hour 51Cr release", "protocol": "FIGS. 3A-E: TCL1-specific cytotoxic T cells can be generated from normal donors. (FIG. 3A) PBMCs from HLA-A2^+ normal donors were stimulated with overlapping 15-mer peptides spanning the entire length of the TCL1 protein (see Table 2). T cells from each condition were washed and incubated with autologous CD3-depleted PBMC as antigen-presenting cells (APC) in the presence or absence of the corresponding peptide. After 18 hours, the production of IFN-γ was determined in the supernatants by ELISA. Asterisk indicates significant IFN-γ production compared with control (P<0.05). Representative data from one of three normal donors tested is shown. (FIG. 3B) T cell lines generated from HLA-A2^+ normal donors using TCL165-79 peptide were incubated with APC in the presence or absence of the TCL165-79 peptide or control HIV Gag77-85 peptide, and intracellular cytokine assay was performed. The percentage of CD4^+ and CD8^+ T cells producing IFN-γ are shown. (FIG. 3C) TCL165-79 peptide-specific T cells were incubated with T2 cells or EBV-transformed B lymphoblastoid cell lines (IHW1003, IHW1019, IHW1089, and IHW1135) mismatched at their MHC class I locus in the presence of the TCL165-79 peptide or control HIV Gag77-85 peptide. IFN-γ production was determined as in (FIG. 3A). The HLA-A alleles for each of the cell lines are shown. (FIG. 3D, FIG. 3E) A 4-hour ^51Cr-release cytotoxicity assay was performed. TCL165-79 peptide-specific T cells were incubated with T2 cells alone or T2 cells pulsed with TCL165-79 peptide or control HIV Gag77-85 peptide, at various effector:target ratios. For MHC blocking assay, an effector:target ratio of 20:1 was used in the presence or absence of isotype control antibody or blocking antibodies against MHC class I, MHC class II, HLA-A2, or HLA-B and C. All cytotoxicity assays were performed in triplicate wells and mean and standard deviation are shown.\nas §2, §1"}, "[5]": {"test_system": "CD8+ T cells", "test": "Tetramer staining by flow cytometry", "type": "cell-based, human", "conditions": "for percentage of tetramer positive CD8+ T cells, median / percentage of tetramer positive CD8+ T cells, range: two in vitro stimulations with TCL165-79", "protocol": "FIGS. 4A-D: TCL171-78 is the minimal HLA-A*0201-binding peptide. (FIG. 4A) TCL165-79 peptide-specific T cells derived from HLA-A2^+ normal donors were incubated in the presence or absence of T2 cells and TCL165-79 derived truncated peptides (SEQ ID NOS:1-2; SEQ ID NOS:12-17; SEQ ID NOS:3-11; and SEQ ID NO:18) Flu matrix peptide (FMP58-66) and Gag77-85 peptide were used as controls. After 18 hours, the production of IFN-γ was determined in the supernatants by ELISA. (FIG. 4B) T2 cells were incubated with TCL165-79-derived truncated peptides (SEQ ID NOS:1-2; SEQ ID NOS:12-17; SEQ ID NOS:3-11; and SEQ ID NO:18), and the HLA-A2 binding affinity of each peptide was determined by flow cytometry. The T2 binding index was calculated as described in Materials and Methods. (FIG. 4C) TCL165-79 (SEQ ID NO:1) peptide-specific T cells were incubated with T2 cells pulsed with TCL165-79-derived truncated peptides (SEQ ID NO:1; SEQ ID NO:8; SEQ ID NO:10; SEQ ID NO:11; SEQ ID NO:18) or control HIV Gag77-85 peptide and a 4-hour ^51Cr-release cytotoxicity assay was performed. The percent specific lysis is shown. (FIG. 4D) TCL165-79 peptide-specific CD8^+ T cells or irrelevant T-cell line were stained with TCL171-78 or HIV Gag77-85 tetramers and analyzed by flow cytometry. The percentage of tetramer positive T cells is shown. Data in panels A-D are representative of three independent experiments each.\nFIGS. 6A-E: TCL171-78 peptide-specific T cells can be generated from lymphoma patients. (FIG. 6A) PBMC and tumor-infiltrating lymphocytes (TILs) derived from HLA-A2^+ patients with chronic lymphocytic leukemia (CLL) or follicular lymphoma (FL) were stimulated in vitro with TCL165-79 After five stimulations, IFN-γ production in response to TCL165-79 peptide was determined as in FIG. 3A. (FIG. 6B, FIG. 6E) The cytotoxic function of TCL165-79 peptide-specific T cells generated above was tested against T2 cells pulsed with TCL165-79 peptide or HIV Gag77-85 peptide (FIG. 6B) or primary autologous or allogeneic HLA-A2^+ or HLA-A2^− mantle cell lymphoma (MCL Tu) or FL tumor cells (FL Tu) or tumor-free PBMC from MCL3 and FL5 patients (MCL3-PB and FL5-PB) or HLA-A2^+ MCF-7 cell line (FIG. 6E). (FIG. 6C) The percentage of tetramer positive CD8^+ T cells in each of the TCL1-specific T-cell lines generated from lymphoma patients is shown. (FIG. 6D) The expression of TCL1 in each of the primary lymphoma samples as determined by flow cytometry is shown. All cytotoxicity assays were performed in triplicate wells and mean and standard deviation are shown. CLL1-PB-T: TCL1-specific CTL generated from peripheral blood T cells of CLL patient 1; FL5-PB-T: TCL1-specific CTL generated from peripheral blood T cells of FL patient 5; FL5-TILs-T: TCL1-specific CTL generated from tumor infiltrating T cells of FL patient 5.\nFIGS. 7A-B: TCL171-78 peptide-specific T cells are increased in lymphoma patients. PBMCs from HLA-A2^+ normal donors (ND, n=8) or lymphoma patients [chronic lymphocytic leukemia (CLL, n=2), mantle cell lymphoma (MCL, n=5); follicular lymphoma (FL, n=4); diffuse large B-cell lymphoma (n=2); splenic marginal zone B-cell lymphoma (SMZL, n=2)] were stimulated in vitro twice with TCL165-79 peptide and stained with TCL171-78 tetramer or HIV Gag77-85 tetramer. Representative data of the tetramer staining (FIG. 7A) and results from all samples analyzed (FIG. 7B) are shown. P value on the top of graph represents comparison between normal donors and all lymphoma patient samples. P values to the right represent comparison between normal donors and patients from each lymphoma subtype. All P values were calculated by two-tailed Student's t test.\nFlow cytometry. For intracellular staining, tumor or normal B cells were first surface stained with CD3 and CD20 and then fixed and permeabilized using BD Biosciences Cytofix/Cytoperm™ Plus Fixation/Permeabilization kit as per manufacturer's instructions. […]"}, "[6]": {"conditions": "PBMC of HLA-A2+ lymphoma patients (N=15)"}}}
{"compound": "C/C=C/[C@H]1O[C@@](O)([C@@H](C)[C@H](O)[C@H](C)[C@H]2OC(=O)/C(OC)=C/C(C)=C/[C@@H](C)[C@@H](O)[C@@H](CC)[C@@H](O)[C@H](C)C/C(C)=C/C=C/[C@@H]2OC)C[C@@H](O[C@H]2C[C@@H](O)[C@H](OC(N)=O)[C@@H](C)O2)[C@@H]1C", "note": "[Concanamycin A]", "values": [{"measurement": "inhibition of cytolysis of autologous lymphoma cells by TCL1-specific CTLs", "setting": "[1]", "value": "significantly inhibited"}]}
{"compound": "LLPIMWQL [TCL171-78]", "values": [{"measurement": "IFN-γ production by TCL165-79 peptide-specific T cells with T2 cells pulsed with truncated peptides", "setting": "[2]", "value": "induced significant IFN-γ production"}, {"measurement": "binding to HLA-A2", "setting": "[3]", "value": "bound to HLA-A2"}, {"measurement": "lysis of T2 cells pulsed with truncated peptides by TCL165-79 peptide-specific T cells", "setting": "[4]", "value": "specifically lysed"}, {"measurement": "percentage of tetramer positive CD8+ T cells, median", "setting": "[5]; [6]", "value": 2.8, "unit": "%"}, {"measurement": "percentage of tetramer positive CD8+ T cells, range", "setting": "[5]; [6]", "value": "0.88-6%"}, {"measurement": "tetramer positive CD8+ T cells", "setting": "[5]; T-cell lines from lymphoma patients, TCL171-78 tetramer", "value": "10.8-23%"}, {"measurement": "percentage of tetramer positive CD8+ T cells, median", "setting": "[5]; normal donor PBMC (N=8)", "value": 1.35, "unit": "%"}, {"measurement": "percentage of tetramer positive CD8+ T cells, range", "setting": "[5]; normal donor PBMC (N=8)", "value": "0.38-2.2%"}, {"measurement": "tetramer positive TCL165-79 peptide-specific CD8+ T cells", "setting": "[5]; normal donor-derived T cell line, TCL171-78 tetramer", "value": 8.2, "unit": "%"}]}
{"compound": "LLPIMWQLY [TCL171-79]", "values": [{"measurement": "lysis of T2 cells pulsed with truncated peptides by TCL165-79 peptide-specific T cells", "setting": "[4]", "value": "specifically lysed"}]}
{"compound": "SLLPIMWQL [TCL170-79]", "values": [{"measurement": "lysis of T2 cells pulsed with truncated peptides by TCL165-79 peptide-specific T cells", "setting": "[4]", "value": "specifically lysed"}]}
